Measured values from patent US7939541B2, “Intermediates and a process employing the intermediates for the preparation of (3-trifluoromethylsulfonyl)-N-[4-methyl-3-(4-pyridin-3yl-pyrimidin-2ylamino)-phenyl]-benzamide” (Natco Pharma Limited, priority 2004, dated 2011).

Assays:
K562 cells = assay: Nude mice implanted with K562 cells: spleenic enlargement, Crk expression, leukemia growth index; format: in vivo
Description: Mice were sacrificed after a decrease in percent leukemia growth index (LGI) was observed and spleen harvested.
Control mice also developed random subcutaneous tumors showing Crk expression, indicative of the presence of K562 cells.

[1] = system: K562 luc human leukemia cells; assay: Luciferase expression in nude mice implanted with K562 luc cells, low dose oral administration; format: in vivo
Description: Five mice were used per group and divided into 24 groups+2 control. All groups were implanted with K562 normal/luc cells. Of the 24 groups, 12 were used for luciferase studies whereas the other 12 were used for blood smear count studies.

[2] = system: MDAMB231 breast cancer cells; assay: In vitro angiogenic assay, MDA-MB-231 conditioned media on human dermal endothelial cells; format: cell-based; conditions: MDA-MB-231 cells, with radiation
Procedure: The in vitro angiogenesis of 4910, 5310 and U87 glioma cells and MDAMB231 and ZR71 breast cancer cells in the presence of specified concentrations of compounds were determined as follows, cells (2×10^4/well) were seeded in 8-well chamber slides and were treated with various concentrations of test compounds. After a 24 h incubation period, the conditioned media was removed and added to a 4×10^4 human dermal endothelial cell (monolayer in 8-well chamber slides) and the human dermal endothelial cells were allowed to grow for 72 h. Cells were then fixed in 3.7% formaldehyde and stained with H&E and photographed.

[3] = system: AKT, ERK and Pi3k in 4910 glioma cells; assay: Western blot analysis, 4910; format: cell-based, human; conditions: 24 h
Procedure: Western blot analysis of 4910, 5310 and U87 glioma cells and MDAMB231 and ZR71 breast cancer cells in the presence of specified concentrations of compounds were assessed as per standard protocols. Cells were treated with AN019, AN024 or Temozolomide at the specified concentrations. 24 h after treatment, cells were collected and cell lysates extracted. Equal quantities of proteins were fractionated by SDS-PAGE. The fractionated proteins were blotted on to nylon membranes and immunoprobed for AKT, ERK and Pi3k. Breast cancer cell protein isolates were additionally immunoprobed for EGFR, ErbB1, ErbB2 and ErbB3.

[4] = system: 4910 human glioma xenograft cells; assay: Glioma radiation studies, intracranial tumours; format: in vivo, nude mice
Procedure: Nude mice were intracranially implanted with 4910 human glioma xenograft cells (1×10^6 cells) intracranially. Ten days after implantation mice were treated with AN019, AN024 or temozolomide with or without radiation (5 Gy/week). The experiment was terminated at day 40 post implantation.

## Cc1ccc(NC(=O)c2cccc(S(=O)(=O)C(F)(F)F)c2)cc1Nc1nccc(-c2cccnc2)n1 [AN024, (3-trifluoromethylsulfonyl)-N-[4-methyl-3-(4-pyridin-3yl-pyrimidin-2ylamino)-phenyl]-benzamide]
K562 cells; K562 implanted nude mice
  leukemia growth index (LGI): caused the regression of LGI
K562 cells; immuno-probed spleen sections
  Crk expression in paraffin sections of spleen: only basal level expression of Crk expression comparable to negative control
K562 cells; ip injections, visual inspection of harvested spleen
  Spleenic enlargement: did not show any spleenic enlargement
K562 cells; treated K562 implanted nude mice
  physiological, phenotypic or behavioral abnormality: no abnormal physiological, phenotypic or behavioral abnormality
[1]; 1 mg/kg
  luciferase expression: did not induce a decrease in luciferase expression
[1]; 5 mg/kg
  luciferase expression: caused a decrease in luciferase expression
[1]; 10 mg/kg
  luciferase expression: caused a decrease in luciferase expression
[1]; 20 mg/kg
  luciferase expression: caused a decrease in luciferase expression
[2]
  inhibition of angiogenesis: only a slight inhibition
[3]; 4910, after radiation
  AKT levels: decrease in AKT levels was enhanced after radiation
[3]; 4910, without radiation
  AKT levels: decrease in AKT levels
[4]; with radiation (5 Gy/week)
  intracranial tumours (size, appearance): well defined surgically respectable tumours
[4]; without radiation
  intracranial tumours (size, appearance): well defined and not showing diffuse edges
